Data as given in patent US10584115B2, “Substituted pyridine and pyrazine BMI-1 inhibitors” (PTC Therapeutics, Inc., priority 2013, dated 2020).

Key:
Bmi-1 protein = assay: Sandwich ELISA Assay (Bmi-1 protein level in HT-1080 cells after compound treatment); type: cell-based; conditions: Table 1, Bmi-1 sandwich ELISA, read-out: ELISA EC50 value for Bmi-1 protein
How it was run: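 Sandwich ELISA quantified Bmi-1 protein against recombinant standard (125–8000 pg/mL), with lysates captured overnight at 4 °C and signal by HRP/TMB at 450 nm (570 nm reference). Lysates came from HT-1080 cells incubated 40–48 h with test compounds in 0.5% DMSO.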

Row | Compound | melting point | EC50 (Bmi-1 protein)
1 | Cc1nn(CC[C@H](O)CO)c(C)c1-c1cncc(Nc2ccc(C(F)(F)F)cc2)n1 [compound 404, (2S)-4-[3,5-dimethyl-4-(6-{[4-(trifluoromethyl)phenyl]amino}pyrazin-2-yl)-1H-pyrazol-1-yl]butane-1,2-diol] | 75 to 77 °C | 100 to 3000 nM
2 | N#Cc1cc(Nc2ccc(C(F)(F)F)cc2)nc(-n2c(C3CC3)nc3ccc(F)cc32)c1 [compound 410, 2-(2-cyclopropyl-6-fluoro-1H-benzimidazol-1-yl)-6-{[4-(trifluoromethyl)phenyl]amino}pyridine-4-carbonitrile] | 291 to 293 °C | 10 to 100 nM
3 | FC(F)c1nc2ccccc2n1-c1cncc(Nc2ccc(C(F)(F)F)cc2)n1 [compound 481, 6-[2-(difluoromethyl)-1H-benzimidazol-1-yl]-N-[4-(trifluoromethyl)phenyl]pyrazin-2-amine] | 229 to 231 °C | 10 to 100 nM
4 | N#Cc1cc(Nc2ccc(OC(F)F)c(F)c2)nc(-c2c(C3CC3)nc3ccc(F)cn23)c1 [compound 349, 2-(2-cyclopropyl-6-fluoroimidazo[1,2-a]pyridin-3-yl)-6-{[4-(difluoromethoxy)-3-fluorophenyl]amino}pyridine-4-carbonitrile] | 185 to 186 °C | 10 to 100 nM
5 | CCn1nc(C)c(-c2cncc(Nc3ccc(OC(F)(F)F)cc3)n2)c1C [compound 84, 6-(1-ethyl-3,5-dimethyl-1H-pyrazol-4-yl)-N-[4-(trifluoromethoxy)phenyl]pyrazin-2-amine] | 142 to 143 °C | 1 to 10 nM
6 | Cc1cc(Nc2cc(C#N)cc(-c3c(C(F)F)nc4ccc(F)cn34)n2)cnc1OC(F)F [compound 468, 2-{[6-(difluoromethoxy)-5-methylpyridin-3-yl]amino}-6-[2-(difluoromethyl)-6-fluoroimidazo[1,2-a]pyridin-3-yl]pyridine-4-carbonitrile] | 239 to 241 °C | 10 to 100 nM
7 | N#Cc1cc(Nc2ccc(OC(F)F)cc2)nc(-c2c(C(F)F)nc3ccc(F)cn23)c1 [compound 467, 2-{[4-(difluoromethoxy)phenyl]amino}-6-[2-(difluoromethyl)-6-fluoroimidazo[1,2-a]pyridin-3-yl]pyridine-4-carbonitrile] | 215 to 217 °C | 1 to 10 nM
8 | CCc1nc2ccc(F)cc2n1-c1cncc(Nc2ccc(C)cc2)n1 [compound 622, 6-(2-ethyl-6-fluoro-1H-benzimidazol-1-yl)-N-(4-methylphenyl)pyrazin-2-amine] | 223 to 226 °C | 1 to 10 nM
9 | FC(F)Oc1ccc(Nc2cncc(-c3cccc4nc(C5CCC5)cn34)n2)cc1 [compound 115, 6-(2-cyclobutylimidazo[1,2-a]pyridin-5-yl)-N-[4-(difluoromethoxy)phenyl]pyrazin-2-amine] | 252 to 253 °C | 10 to 100 nM
10 | Cc1nc2ncc(F)cn2c1-c1cc(C#N)cc(Nc2ccc(OC(F)F)c(F)c2)n1 [compound 439, 2-{[4-(difluoromethoxy)-3-fluorophenyl]amino}-6-(6-fluoro-2-methylimidazo[1,2-a]pyrimidin-3-yl)pyridine-4-carbonitrile] | 268 to 270 °C | 10 to 100 nM
11 | Cc1nc2ccc(F)cc2n1-c1cc(C#N)cc(Nc2ccc(OC(F)F)cc2)n1 [compound 262, 2-{[4-(difluoromethoxy)phenyl]amino}-6-(6-fluoro-2-methyl-1H-benzimidazol-1-yl)pyridine-4-carbonitrile] | 231 to 232 °C | 10 to 100 nM
12 | Cc1cn2c(-c3cncc(Nc4ccc(OC(F)F)cc4)n3)c(C)nc2c(C)n1 [compound 489, N-[4-(difluoromethoxy)phenyl]-6-(2,6,8-trimethylimidazo[1,2-a]pyrazin-3-yl)pyrazin-2-amine] | 140 to 141 °C | 1 to 10 nM
13 | Cc1nc2c(F)cc(F)cn2c1-c1cc(C#N)cc(Nc2ccc(OC(F)F)c(F)c2)n1 [compound 444, 2-{[4-(difluoromethoxy)-3-fluorophenyl]amino}-6-(6,8-difluoro-2-methylimidazo[1,2-a]pyridin-3-yl)pyridine-4-carbonitrile] | 238 to 241 °C | 10 to 100 nM
14 | Cc1cnc(Nc2cccc(-c3c(C(F)(F)F)nc4ccccn34)n2)s1 [compound 147, N-(5-methyl-1,3-thiazol-2-yl)-6-[2-(trifluoromethyl)imidazo[1,2-a]pyridin-3-yl]pyridin-2-amine] | 270 to 271 °C | 100 to 3000 nM
15 | Cc1nc2ncc(F)cn2c1-c1cc(C#N)cc(Nc2ccc(C(F)(F)F)cc2)n1 [compound 437, 2-(6-fluoro-2-methylimidazo[1,2-a]pyrimidin-3-yl)-6-{[4-(trifluoromethyl)phenyl]amino}pyridine-4-carbonitrile] | 290 to 292 °C | 1 to 10 nM
16 | Cc1nc2c(F)cc(F)cn2c1-c1cc(C#N)cc(Nc2ccc(OC(F)F)cc2)n1 [compound 442, 2-{[4-(difluoromethoxy)phenyl]amino}-6-(6,8-difluoro-2-methylimidazo[1,2-a]pyridin-3-yl)pyridine-4-carbonitrile] | 236 to 238 °C | 1 to 10 nM

Row | Compound | melting point | EC50 (Bmi-1 protein)
17 | Cc1nn(C)c(C)c1-c1cccc(Nc2ccc(C(F)(F)F)cc2)n1 [compound 145, N-[4-(trifluoromethyl)phenyl]-6-(1,3,5-trimethyl-1H-pyrazol-4-yl)pyridin-2-amine] | 48 to 50 °C | 10 to 100 nM
18 | N#Cc1cc(Nc2ccc(C(F)(F)F)cc2)nc(-n2c(C(F)F)nc3ccccc32)c1 [compound 484, 2-[2-(difluoromethyl)-1H-benzimidazol-1-yl]-6-{[4-(trifluoromethyl)phenyl]amino}pyridine-4-carbonitrile] | 225 to 227 °C | 10 to 100 nM
19 | FC(F)(F)c1ccc(Nc2cncc(-c3cccc4nc(C5CCC5)cn34)n2)cc1 [compound 114, 6-(2-cyclobutylimidazo[1,2-a]pyridin-5-yl)-N-[4-(trifluoromethyl)phenyl]pyrazin-2-amine] | 288 to 290 °C | 100 to 3000 nM
20 | Cc1nc2ccc(F)cn2c1-c1cncc(Nc2cccc(Cl)c2)n1 [compound 597, N-(3-chlorophenyl)-6-(6-fluoro-2-methylimidazo[1,2-a]pyridin-3-yl)pyrazin-2-amine] | 272 to 275 °C | 10 to 100 nM
21 | Fc1ccc2nc(C3CC3)c(-c3cncc(Nc4ccc(C(F)(F)F)cc4)n3)n2c1 [compound 336, 6-(2-cyclopropyl-6-fluoroimidazo[1,2-a]pyridin-3-yl)-N-[4-(trifluoromethyl)phenyl]pyrazin-2-amine] | 183 to 185 °C | 1 to 10 nM
22 | N#Cc1cc(Nc2ccc(C(F)(F)F)cc2)nc(-n2c(C3CC3)nc3c(F)cc(F)cc32)c1 [compound 474, 2-(2-cyclopropyl-4,6-difluoro-1H-benzimidazol-1-yl)-6-{[4-(trifluoromethyl)phenyl]amino}pyridine-4-carbonitrile] | 233 to 235 °C | 10 to 100 nM
23 | CCc1nn(C)c(CC)c1-c1cncc(Nc2ccc(OC(F)(F)F)cc2)n1 [compound 334, 6-(3,5-diethyl-1-methyl-1H-pyrazol-4-yl)-N-[4-(trifluoromethoxy)phenyl]pyrazin-2-amine] | 122 to 123 °C | 10 to 100 nM
24 | Cc1nn(C)c(C)c1-c1cc(C#N)cc(Nc2ccc(C(F)(F)F)cc2)n1 [compound 263, 2-{[4-(trifluoromethyl)phenyl]amino}-6-(1,3,5-trimethyl-1H-pyrazol-4-yl)pyridine-4-carbonitrile] | 182 to 183 °C | 1 to 10 nM
25 | Fc1ccc2nc(C(F)F)c(-c3cncc(Nc4ccc(C(F)(F)F)cc4)n3)n2c1 [compound 472, 6-[2-(difluoromethyl)-6-fluoroimidazo[1,2-a]pyridin-3-yl]-N-[4-(trifluoromethyl)phenyl]pyrazin-2-amine] | 180 to 182 °C | 1 to 10 nM
26 | Cc1nc2ccc(F)cc2n1-c1cncc(Nc2ccc(N)cc2)n1 [compound 558, N-[6-(6-fluoro-2-methyl-1H-benzimidazol-1-yl)pyrazin-2-yl]benzene-1,4-diamine] | 189 to 191 °C | 10 to 100 nM
27 | Cc1ccc(Nc2cncc(-c3c(C)noc3C)n2)cc1 [compound 635, 6-(3,5-dimethyl-1,2-oxazol-4-yl)-N-(4-methylphenyl)pyrazin-2-amine] | 186 to 188 °C | 1 to 10 nM
28 | Cc1nn(C)c(C)c1-c1cncc(Nc2ccc(C(F)(F)F)cc2)n1 [compound 128, N-[4-(trifluoromethyl)phenyl]-6-(1,3,5-trimethyl-1H-pyrazol-4-yl)pyrazin-2-amine] | 201 to 202 °C | 1 to 10 nM
29 | Cc1nc2ccc(F)cn2c1-c1cncc(Nc2ccc(C(F)(F)F)c(F)c2)n1 [compound 310, 6-(6-fluoro-2-methylimidazo[1,2-a]pyridin-3-yl)-N-[3-fluoro-4-(trifluoromethyl)phenyl]pyrazin-2-amine] | 216 to 218 °C | 10 to 100 nM
30 | Cc1cc(Nc2cc(C#N)cc(-c3c(C)nc4c(F)cc(F)cn34)n2)cnc1OC(F)F [compound 471, 2-{[6-(difluoromethoxy)-5-methylpyridin-3-yl]amino}-6-(6,8-difluoro-2-methylimidazo[1,2-a]pyridin-3-yl)pyridine-4-carbonitrile] | 236 to 238 °C | 100 to 3000 nM
31 | N#Cc1cc(Nc2ccc(C(F)(F)F)cc2)nc(-c2c(C(F)F)nc3ccc(F)cn23)c1 [compound 466, 2-[2-(difluoromethyl)-6-fluoroimidazo[1,2-a]pyridin-3-yl]-6-{[4-(trifluoromethyl)phenyl]amino}pyridine-4-carbonitrile] | 249 to 251 °C | 10 to 100 nM
